Data: BindingDB's records for doi:10.1016/j.bmcl.2009.05.071 (Astrazeneca, 2009)

Biological target: T1, Procathepsin L [114-333,T223A] (Homo sapiens, UniProt P07711, T223A)
T1 construct: 114-333
Experiment: Cathepsin Inhibition Assay
Conditions: pH 7; 37 °C
Description: IC50 values for inhibition of Cathepsins were determined from dose dependent inhibition of cleavage of fluorogenic, AMC-tagged, peptide substrates.

T1 sequence (P07711 114-333 T223A): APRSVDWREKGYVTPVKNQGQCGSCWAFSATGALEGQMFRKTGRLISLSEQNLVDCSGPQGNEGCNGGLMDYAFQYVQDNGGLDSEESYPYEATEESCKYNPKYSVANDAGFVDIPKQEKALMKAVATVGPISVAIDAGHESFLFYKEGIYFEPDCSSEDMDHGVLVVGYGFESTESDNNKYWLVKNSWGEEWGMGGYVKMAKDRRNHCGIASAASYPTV

Molecule N#CCNC(=O)[C@H](Cc1cccc(Cl)c1)NC(=O)c1ccccc1 [Dipeptidyl nitrile inhibitor, 1] has an IC50 of 251 nM.

With Cn1nc(C(C)(C)C)cc1C(=O)N[C@@H](Cc1cccc(Cl)c1)C(=O)NCC#N [Dipeptidyl nitrile inhibitor, 25] the IC50 was 13 nM.
